In US9463192B2, “Trk-inhibiting compound” (ONO PHARMACEUTICAL CO., LTD., priority 2013, dated 2016):
Like-named read-outs stand apart in the source and are kept apart here.

Tests used:
human TrkA = human TrkA (Homo sapiens (Human), UniProt P04629); assay: Measurement of TrkA kinase-inhibiting activity using human TrkA-expressing cells; format: cell-based; settings: CHO-K1 cells expressing human TrkA and NFAT-bla; NGF 50 ng/ml; TR-FRET reporter
Description: TrkA kinase-inhibiting activity in cell systems was measured using CHO-K1 cells exressing human TrkA and NFAT-bla (CellSenser™ TrkA-NFAT-bla CHO-K1 cells, Invitrogen).
On the day before the assay, CellSenser™ TrkA-NFAT-bla CHO-K1 cells were suspended in an assay medium (Opti-MEM1 Reduced Serum Medium (Invitrogen) containing 0.5% dialysed fetal bovine serum (Invitrogen), 0.1 mM nonessential amino acids (Invitrogen), 1 mM sodium pyruvate (Invitrogen) and antibiotics (100 U/mL penicillin and 100 µg/mL streptomycin (Invitrogen))) and plated at a density of 2.4×10^4 cells/40 μL/well in a 96-well clear bottom plate (Corning, Catalogue No.: 3882). In some wells were added only the assay medium at 40 μL/well (Cell-free). On the day of the assay, 10 mM of the present compound (DMSO solution) was distributed in a 96-well plate (Costar, Catalogue No.: 3363) and serially diluted with DMSO with the geometrical ratio of 3. The serial dilutions were diluted with the assay medium to 100-fold to prepare a solution of the present compound with a 10-fold concentration (DMSO concentration: 1%). To the plate where cells were plated was added the present compound at 5 µL/well and the plate was incubated in a CO2 incubator with 5% CO2, 95% Air at 37° C. for 30 minutes. For a control and a blank, the assay medium containing 1% DMSO was added at 5 µL/well in place of the solution of the present compound. Subsequently the assay medium containing NGF (Mouse 2.5s, Natural, Invitrogen) was added to the plate at 5 µL/well (final concentration of NGF: 50 ng/ml) and the plate was incubated in a CO2 incubator with 5% CO2, 95% Air at 37° C. for 5 hours. For the blank group, the assay medium was added in place of NGF at 5 µL/well. A reporter assay detection reagent ([…]) was added to the plate which was then incubated in the dark at room temperature for 120 minutes. The reporter assay detection reagent was prepared from LiveBLAzer™-FRET B/G Loading Kit (Invitrogen). On the Analyst GT (Molecular Devices Japan, K.K.) the wells were irradiated with excitation light at 405 nm and the fluorescence intensities at 460 nm and 530 nm were measured. The time resolved fluorescence resonance energy transfer (TR-FRET) ratio of each well was calculated according to the following Equation 1: TR-FRET ratio=(A460x−A460F)/(A530x−A530F) [Eq. 1]
A460x: the fluorescence intensity at 460 nm of the present compound, control or blank;
A460F: the fluorescence intensity at 460 nm of the Cell-free;
A530x: the fluorescence intensity at 530 nm of the present compound, control or blank; and
A530x: the fluorescence intensity at 530 nm of the Cell-free.
The TR-FRET inhibition rate (%) of the present compound was calculated according to the following Equation 2: Inhibition rate (%)={1−(AX−AB)/(AC−AB)}×100 [Eq. 2]
wherein AX: the TR-FRET ratio when the present compound is added;
AB: the TR-FRET of the blank; and
AC: the TR-FRET of the control.
The IC50 value by the present compound was calculated from the inhibition curve based on the inhibition rate of the present compound at respective concentrations.

[1] = system: NGF-induced vascular hyper permeability; assay: Inhibition of rat NGF-induced vascular hyper permeability; format: in vivo; settings: po, 1 mg/kg orally, read-out: Inhibition rate of vascular hyper permeability (%) (time after administration (h))
Description: TrkA-inhibiting activity of the present compound was evaluted in vivo. The present compound dissolved in a medium was orally administered (adminstered volume: 5 mL/kg) to male CD(SD)IGS rats (7- to 9-week old, Charles River laboratories Japan, Inc.) shaved on the back. A medium was orally administered (adminstered volume: 5 mL/kg) to the control and normal groups. After 6, 12 or 14 hours of administration, 3 μg/mL of a NGF (Mouse 2.5s, Natural, Invitrogen) solution prepared in 0.1% BSA (Sigma-Aldrich)-containing saline was intracutaneously administered (dose; 50 μL/site) at 3 sites on the back of animals under halothane anesthesia. For the normal group, 0.1% BSA-containing saline was intracutaneously administered (dose; […]) at 3 sites on the back. Immediately after intracutaneous administration, 1% Evans Blue (Tokyo Chemical Industriy Co., Ltd.) was administered intravenously from tail (adminstered volume: 3 mL/kg). After 10 minutes of administration, the animals were sacrificed by bleeding due to incision of the abdominal aorta. The sites of intracutaneous administration on the back (3 sites) were excised and the skin samples were respectively transferred to the wells in a 48-well plate (Asahi Glass Co., Ltd.). Formamide (0.8 mL/well) was added to the plate and the plate was sealed and incubated overnight at 60° C. The formamide extraction solution (200 μL) was transferred to a 96-well plate and the absorbance (wavelength: 620 nm) of Evans Blue extracted in formamide was measured on an absorbance microplate reader (SpectraMAX 190, Molecular Devices Japan, K.K.). Standard samples of Evans Blue dissolved in formamide (0, 0.78, 1.56, 3.13, 6.25, 12.5, 25 and 50 µg/mL) were measured at the same time for the absorance (wavelength: 620 nm) to generate a calibration curve. Based on the calibration curve and the absorbances of samples, the concentrations of Evans Blue in the sample was calculated. The concentrations of Evans Blue for three skin samples collected from one aminal were averaged to obtain the vale for the animal. The rate of inhibition for rat NGF-induced vascular hyper permeability of the present compound was calculated according to the following Equation: Inhibition rate (%)={1−(AX−AN)/(AC−AN)}×100 [Eq. 3]
wherein AX: the concentration of Evans Blue of the test compound (an average value of 3 samples from one animal);
AN: the concentration of Evans Blue of the normal group (an average value of 3 samples from one animal);
AC: the concentration of Evans Blue of the control group (an average value of 3 samples from one animal).

human TrkA, sequence (P04629 33-796): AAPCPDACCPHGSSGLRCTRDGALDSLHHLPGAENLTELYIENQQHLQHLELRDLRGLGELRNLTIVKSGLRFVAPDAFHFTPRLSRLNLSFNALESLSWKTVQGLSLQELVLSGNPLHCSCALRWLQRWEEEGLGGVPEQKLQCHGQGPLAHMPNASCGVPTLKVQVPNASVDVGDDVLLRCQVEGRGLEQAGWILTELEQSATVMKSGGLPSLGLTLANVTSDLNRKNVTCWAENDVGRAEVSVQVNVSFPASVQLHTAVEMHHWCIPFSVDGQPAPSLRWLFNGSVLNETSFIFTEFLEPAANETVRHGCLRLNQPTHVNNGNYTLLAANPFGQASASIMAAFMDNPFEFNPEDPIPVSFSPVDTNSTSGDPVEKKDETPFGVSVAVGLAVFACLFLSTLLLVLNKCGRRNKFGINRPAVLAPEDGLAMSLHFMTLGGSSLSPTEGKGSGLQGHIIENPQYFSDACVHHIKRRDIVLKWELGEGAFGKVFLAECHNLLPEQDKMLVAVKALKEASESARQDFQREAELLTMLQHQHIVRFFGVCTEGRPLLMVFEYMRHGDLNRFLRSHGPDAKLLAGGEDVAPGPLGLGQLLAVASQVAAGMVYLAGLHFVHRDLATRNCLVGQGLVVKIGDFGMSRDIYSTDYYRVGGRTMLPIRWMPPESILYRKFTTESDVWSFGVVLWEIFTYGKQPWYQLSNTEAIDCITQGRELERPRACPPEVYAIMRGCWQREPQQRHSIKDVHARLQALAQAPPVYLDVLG

| SMILES | IC50 (human TrkA) | inhibition in vivo at 1 mg/kg ([1]; 14 h after administration) | inhibition in vivo at 1 mg/kg ([1]; 12 h after administration) |
| --- | --- | --- | --- |
| Nc1ncc(Cl)cc1-c1ccc(Oc2ncc(NC(=O)Nc3cc(C(F)(F)F)ccc3-n3cccn3)cn2)cc1 [Example 7, 1-(2-(1H-pyrazol-1-yl)-5-(trifluoromethyl)phenyl)-3-(2-(4-(2-amino-5-chloropyridin-3-yl)phenoxy)pyrimidin-5-yl)urea] | 0.001 µM | 97% | – |
| Cc1cn(-c2ccc(C(F)(F)F)cc2NC(=O)Nc2cnc(Oc3ccc(-c4cc(Cl)cnc4N)cc3)nc2)nn1 [Example 8-1, 1-(2-(4-(2-amino-5-chloropyridin-3-yl)phenoxy)pyrimidin-5-yl)-3-(2-(4-methyl-1H-1,2,3-triazol-1-yl)-5-(trifluoromethyl)phenyl)urea] | 0.001 µM | 94% | – |
| Nc1ncc(Cl)cc1-c1ccc(Oc2ncc(NC(=O)Nc3cc(C(F)(F)F)ccc3-n3ccc(C(F)(F)F)n3)cn2)cc1 [Example 8-2, 1-(2-(4-(2-amino-5-chloropyridin-3-yl)phenoxy)pyrimidin-5-yl)-3-(5-(trifluoromethyl)-2-(3-(trifluoromethyl)-1H-pyrazol-1-yl)phenyl)urea] | 0.002 µM | 100% | – |
| Nc1ncc(Cl)cc1-c1ccc(Oc2ncc(NC(=O)Nc3cc(C(F)(F)F)ccc3Cl)cn2)cc1 [Example 8-4, 1-(2-(4-(2-amino-5-chloropyridin-3-yl)phenoxy)pyrimidin-5-yl)-3-(2-chloro-5-(trifluoromethyl)phenyl)urea] | 0.001 µM | 96% | – |
| Nc1ncc(Cl)cc1-c1ccc(Oc2ccc(NC(=O)Nc3cc(C(F)(F)F)ccc3-n3cccn3)cn2)cc1 [Example 9-1] | 0.003 µM | 86% | – |
| Nc1ncc(Cl)cc1-c1ccc(Oc2ccc(NC(=O)Nc3cc(C(F)(F)F)ccc3-n3ccnn3)cn2)cc1 [Example 9-2] | 0.001 µM | 100% | – |
| Nc1ncc(Cl)cc1-c1ccc(Oc2ccc(NC(=O)Nc3cc(C(F)(F)F)ccc3-c3cccnc3)cn2)cc1 [Example 11, 1-(6-(4-(2-amino-5-chloropyridin-3-yl)phenoxy)pyridin-3-yl)-3-(2-(pyridin-3-yl)-5-(trifluoromethyl)phenyl)urea] | 0.001 µM | 100% | – |
| Cn1nccc1-c1ccc(C(F)(F)F)cc1NC(=O)Nc1cnc(Oc2ccc(-c3cc(Cl)cnc3N)cc2)nc1 [Example 13-1, 1-(2-(4-(2-amino-5-chloropyridin-3-yl)phenoxy)pyrimidin-5-yl)-3-(2-(1-methyl-1H-pyrazol-5-yl)-5-(trifluoromethyl)phenyl)urea] | 0.002 µM | 100% | – |
| Nc1ncc(F)cc1-c1ccc(Oc2ncc(NC(=O)Nc3cc(C(F)(F)F)ccc3-n3ccnn3)cn2)cc1 [Example 14-5, 1-(2-(1H-1,2,3-triazol-1-yl)-5-(trifluoromethyl)phenyl)-3-(2-(4-(2-amino-5-fluoropyridin-3-yl)phenoxy)pyrimidin-5-yl)urea] | 0.001 µM | 93% | – |
| Nc1ncc(F)cc1-c1ccc(Oc2ncc(NC(=O)Nc3cc(C(F)(F)F)ccc3-c3cccnc3)cn2)cc1 [Example 14-6, 1-(2-(4-(2-amino-5-fluoropyridin-3-yl)phenoxy)pyrimidin-5-yl)-3-(2-(pyridin-3-yl)-5-(trifluoromethyl)phenyl)urea] | 0.001 µM | – | 78% |
| Nc1ncc(Cl)cc1-c1ccc(Oc2ncc(NC(=O)Nc3ccc(C(F)(F)F)cc3-n3cccn3)cn2)cc1 [Example 15-4, 1-(2-(1H-pyrazol-1-yl)-4-(trifluoromethyl)phenyl)-3-(2-(4-(2-amino-5-chloropyridin-3-yl)phenoxy)pyrimidin-5-yl)urea] | 0.001 µM | 100% | – |
| Nc1ncc(Cl)cc1-c1ccc(Oc2ncc(NC(=O)Nc3ccc(C(F)(F)F)cc3F)cn2)cc1 [Example 15-5, 1-(2-(4-(2-amino-5-chloropyridin-3-yl)phenoxy)pyrimidin-5-yl)-3-(2-fluoro-4-(trifluoromethyl)phenyl)urea] | 0.003 µM | 92% | – |
| Nc1ncc(Cl)cc1-c1ccc(Oc2ncc(NC(=O)Nc3ccc(C(F)(F)F)cc3Cl)cn2)cc1 [Example 15-6, 1-(2-(4-(2-amino-5-chloropyridin-3-yl)phenoxy)pyrimidin-5-yl)-3-(2-chloro-4-(trifluoromethyl)phenyl)urea] | 0.002 µM | 95% | – |
| O=C(Nc1cnc(Oc2ccc(-c3cnc4ccccn34)cc2)nc1)Nc1cc(C(F)(F)F)ccc1-n1cccn1 [Example 23-3, 1-(2-(1H-pyrazol-1-yl)-5-(trifluoromethyl)phenyl)-3-(2-(4-(imidazo[1,2-a]pyridin-3-yl)phenoxy)pyrimidin-5-yl)urea] | 0.001 µM | – | – |
| O=C(Nc1cnc(Oc2ccc(-c3cnc4[nH]ccc4c3)cc2)nc1)Nc1cc(C(F)(F)F)ccc1-c1cccnc1 [Example 23-7, 1-(2-(4-(1H-pyrrolo[2,3-b]pyridin-5-yl)phenoxy)pyrimidin-5-yl)-3-(2-(pyridin-3-yl)-5-(trifluoromethyl)phenyl)urea] | 0.002 µM | – | – |
| O=C(Nc1cnc(Oc2ccc(-c3cnc4cnccn34)cc2)nc1)Nc1cc(C(F)(F)F)ccc1-c1cccnc1 [Example 23-10, 1-(2-(4-(imidazo[1,2-a]pyrazin-3-yl)phenoxy)pyrimidin-5-yl)-3-(2-(pyridin-3-yl)-5-(trifluoromethyl)phenyl)urea] | 0.001 µM | – | – |
| O=C(Nc1cnc(Oc2ccc(-c3cnn4ccccc34)cc2)nc1)Nc1cc(C(F)(F)F)ccc1-c1cccnc1 [Example 23-11, 1-(2-(4-(pyrazolo[1,5-a]pyridin-3-yl)phenoxy)pyrimidin-5-yl)-3-(2-(pyridin-3-yl)-5-(trifluoromethyl)phenyl)urea] | 0.001 µM | – | – |
| O=C(Nc1cnc(Oc2ccc(-c3cnc4[nH]ncc4c3)cc2)nc1)Nc1cc(C(F)(F)F)ccc1-c1cccnc1 [Example 23-12, 1-(2-(4-(1H-pyrazolo[3,4-b]pyridin-5-yl)phenoxy)pyrimidin-5-yl)-3-(2-(pyridin-3-yl)-5-(trifluoromethyl)phenyl)urea] | 0.001 µM | – | – |
